From patent publication US9730937B2, “RAF kinase modulator compounds and methods of use thereof” (AMBIT BIOSCIENCES CORPORATION, priority 2008, dated 2017)
Read-outs that look alike come from different tables or passages of the source.

Columns and labels:
mutant BRAF kinase = mutant BRAF kinase (Homo sapiens (Human), UniProt P15056, V600E); conditions: read-out: BRAF V600E Kd, class symbols
RAF kinases = RAF kinases (Homo sapiens (Human), UniProt P04049); conditions: read-out: RAF1 Kd, class symbols
Chain of RAF kinases (P04049 whole entry): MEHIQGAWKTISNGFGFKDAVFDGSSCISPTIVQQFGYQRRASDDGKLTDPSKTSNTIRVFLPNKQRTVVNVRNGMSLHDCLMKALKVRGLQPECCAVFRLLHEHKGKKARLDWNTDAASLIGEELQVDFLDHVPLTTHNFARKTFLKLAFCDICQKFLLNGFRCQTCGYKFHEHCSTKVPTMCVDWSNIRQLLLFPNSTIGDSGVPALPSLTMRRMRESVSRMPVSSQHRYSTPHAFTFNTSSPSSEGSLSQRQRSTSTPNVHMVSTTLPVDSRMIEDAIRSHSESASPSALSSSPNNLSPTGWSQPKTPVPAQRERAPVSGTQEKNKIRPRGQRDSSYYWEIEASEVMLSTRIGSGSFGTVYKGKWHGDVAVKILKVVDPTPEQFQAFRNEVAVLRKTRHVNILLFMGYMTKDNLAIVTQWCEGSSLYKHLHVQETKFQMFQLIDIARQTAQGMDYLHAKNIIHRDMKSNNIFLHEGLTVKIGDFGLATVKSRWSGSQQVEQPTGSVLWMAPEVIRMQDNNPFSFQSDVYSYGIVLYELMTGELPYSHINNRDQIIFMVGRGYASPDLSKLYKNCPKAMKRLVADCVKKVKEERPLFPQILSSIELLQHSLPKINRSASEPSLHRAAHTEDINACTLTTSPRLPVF

[1] = tested on: panel of 290 distinct kinases (321 in the larger panel), excluding mutant variants; conditions: kinase selectivity score, class symbols
Method: The liganded beads were blocked with excess biotin and washed with blocking buffer (SeaBlock (Pierce), 1% BSA, 0.05% Tween 20, 1 mM DTT) to remove unbound ligand and to reduce non-specific binding. […] Test compounds were prepared as 100× stocks in DMSO and rapidly diluted into the aqueous environment. DMSO was added to control assays lacking a test compound. Primary screen interactions were performed in polypropylene 384-well plates in a final volume of 34 μL, while Kd determinations were performed in polystyrene 96-well plates in a final volume of 135 μL. […] The kinase concentration in the eluates was measured by quantitative PCR. Each kinase was tested individually against each compound. KdS were determined using eleven serial threefold dilutions. A selectivity score, which is a quantitative measure of selectivity of a compound against a panel of enzymes, may be calculated for a compound by dividing the number of enzymes for which a compound meets a set criteria, (for example, a binding constant of 100 nM or less), by the total number of enzymes tested. […] (Note, for those compounds tested in a larger kinase panel, as indicated by an asterisk (*) next to the S35 score, the divisor is 321 (i.e. the larger panel contains 321 distinct kinases, excluding mutant variants.)).

wild type BRAF kinase [2] = target: T1, wild type BRAF kinase (Homo sapiens (Human), UniProt P15056); test: biochemical
T1 sequence (P15056 whole entry): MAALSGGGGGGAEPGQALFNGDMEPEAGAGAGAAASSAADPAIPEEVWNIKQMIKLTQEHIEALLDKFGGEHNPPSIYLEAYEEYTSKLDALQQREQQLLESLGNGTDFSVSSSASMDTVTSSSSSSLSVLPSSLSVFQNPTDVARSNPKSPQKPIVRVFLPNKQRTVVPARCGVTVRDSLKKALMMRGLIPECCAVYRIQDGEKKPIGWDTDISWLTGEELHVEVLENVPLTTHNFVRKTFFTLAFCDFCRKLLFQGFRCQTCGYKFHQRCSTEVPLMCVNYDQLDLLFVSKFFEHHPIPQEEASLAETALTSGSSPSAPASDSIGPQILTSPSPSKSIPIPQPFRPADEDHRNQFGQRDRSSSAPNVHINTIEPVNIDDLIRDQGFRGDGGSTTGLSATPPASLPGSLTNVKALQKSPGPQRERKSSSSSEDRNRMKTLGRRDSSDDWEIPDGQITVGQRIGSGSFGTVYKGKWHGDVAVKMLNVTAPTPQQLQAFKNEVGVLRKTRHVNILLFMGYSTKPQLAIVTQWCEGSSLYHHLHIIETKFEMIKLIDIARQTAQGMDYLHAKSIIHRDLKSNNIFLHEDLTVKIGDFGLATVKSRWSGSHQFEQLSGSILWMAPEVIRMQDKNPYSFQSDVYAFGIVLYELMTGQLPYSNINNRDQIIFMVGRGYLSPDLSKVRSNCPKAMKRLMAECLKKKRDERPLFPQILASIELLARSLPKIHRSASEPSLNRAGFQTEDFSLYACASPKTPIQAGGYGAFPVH

wild type BRAF kinase [3] = target: T1, wild type BRAF kinase; conditions: read-out: BRAF WT Kd, class symbols
[4] = value marked * (larger kinase panel)

Chain of mutant BRAF kinase (P15056 whole entry V600E): as the sequence (P15056 whole entry) above, with V600E counted along it

Structure (SMILES)	Kd (mutant BRAF kinase) [nM]	Kd (RAF kinases) [nM]	S35 ([1]; 290 distinct kinases)	Kd (wild type BRAF kinase [2]) [nM]	Kd (wild type BRAF kinase [3]) [nM]	S35 [1, 4]
COc1cc2ncnc(Oc3cccc(NC(=O)Nc4cc(C(C)(C)C)on4)c3)c2cc1O[C@H]1CCN(C)C1 [Ex 109, (S)-1-(5-tert-butylisoxazol-3-yl)-3-(3-(7-methoxy-6-(1-methylpyrrolidin-3-yloxy)quinazolin-4-yloxy)phenyl)urea]	< 250	< 250	D (D > 0.40)	250 to 500		
COCC(C)(C)c1cc(NC(=O)Nc2cccc(Oc3ncnc4cc(OC)c(OC)cc34)c2)on1 [Ex 128, 1-(3-(6,7-dimethoxyquinazolin-4-yloxy)phenyl)-3-(3-(1-methoxy-2-methylpropan-2-yl)isoxazol-5-yl)urea]	< 250	> 1000			> 1000	C* (0.20 < C ≦ 0.40)
COc1cc2ncnc(Oc3cccc(NC(=O)Nc4cc(C(C)C)on4)c3)c2cc1OC [Ex 133, 1-(3-(6,7-dimethoxyquinazolin-4-yloxy)phenyl)-3-(5-isopropylisoxazol-3-yl)urea]	< 250	< 250			< 250	C* (0.20 < C ≦ 0.40)
COc1cc2ncnc(Sc3cccc(NC(=O)Nc4cc(C(C)C)on4)c3)c2cc1OC [Ex 134, 1-(3-(6,7-dimethoxyquinazolin-4-ylthio)phenyl)-3-(5-isopropylisoxazol-3-yl)urea]	< 250	< 250			< 250	C* (0.20 < C ≦ 0.40)
COc1cc2ncnc(Oc3cccc(NC(=O)Nc4cc(C5CCCC5)on4)c3)c2cc1OC [Ex 135, 1-(5-cyclopentylisoxazol-3-yl)-3-(3-(6,7-dimethoxyquinazolin-4-yloxy)phenyl)urea]	< 250	< 250			< 250	C* (0.20 < C ≦ 0.40)
COc1cc2ncnc(Oc3cccc(NC(=O)Nc4cc(C(C)(C)F)on4)c3)c2cc1OC [Ex 136, 1-(3-(6,7-dimethoxyquinazolin-4-yloxy)phenyl)-3-(5-(2-fluoropropan-2-yl)isoxazol-3-yl)urea]	< 250	< 250			< 250	C* (0.20 < C ≦ 0.40)
COCCOc1cc2ncnc(Oc3cccc(NC(=O)Nc4ccc(OC)c(C(F)(F)F)c4)c3)c2cc1OC [Ex 139, 1-(4-methoxy-3-(trifluoromethyl)phenyl)-3-(3-(6-methoxy-7-(2-methoxyethoxy)quinazolin-4-yloxy)phenyl)urea]	< 250	< 250			< 250	C* (0.20 < C ≦ 0.40)
COc1cc2ncnc(Oc3cccc(NC(=O)Nc4cc(C(F)(F)F)ccn4)c3)c2cc1OC [Ex 141, 1-(3-(6,7-dimethoxyquinazolin-4-yloxy)phenyl)-3-(4-(trifluoromethyl)pyridin-2-yl)urea]	< 250	< 250	C (0.20 < C ≦ 0.40)		< 250	
COc1cc2ncnc(Sc3cccc(NC(=O)Nc4cc(C(C)(C)C)nn4-c4ccccc4)c3)c2cc1OC [Ex 154, 1-(3-tert-butyl-1-phenyl-1H-pyrazol-5-yl)-3-(3-(6,7-dimethoxyquinazolin-4-ylthio)phenyl)urea]	> 1000	> 1000			> 1000	D* (D > 0.40)
COc1cc2ncnc(Oc3cccc(NC(=O)Nc4cc(C(F)(F)F)nn4C)c3)c2cc1OC [Ex 164, 1-[3-(6,7-dimethoxyquinazolin-4-yloxy)phenyl]-3-[1-methyl-3-(trifluoromethyl)-1H-pyrazol-5-yl]urea]	< 250	< 250			< 250	C* (0.20 < C ≦ 0.40)
COc1cc2ncnc(Oc3cccc(NC(=O)Nc4cc(C(F)(F)F)n(C)n4)c3)c2cc1OC [Ex 165, 1-[3-(6,7-dimethoxyquinazolin-4-yloxy)phenyl]-3-[1-methyl-5-(trifluoromethyl)-1H-pyrazol-3-yl]urea]	< 250	< 250			< 250	C* (0.20 < C ≦ 0.40)
COc1cc2ncnc(Oc3cccc(NC(=O)Nc4cc(C(C)(CF)CF)nn4-c4ccccc4)c3)c2cc1OC [Ex 167, 1-[3-(1,3-difluoro-2-methylpropan-2-yl)-1-phenyl-1H-pyrazol-5-yl]-3-[3-(6,7-dimethoxyquinazolin-4-yloxy)phenyl]urea]	> 1000	> 1000			> 1000	D* (D > 0.40)
COc1ccc(NC(=O)Nc2cccc(Oc3ncnc4cc(OC)c(OC)cc34)c2)cc1Cl [Ex 180, 1-(3-chloro-4-methoxyphenyl)-3-(3-(6,7-dimethoxyquinazolin-4-yloxy)phenyl)urea]	< 250	< 250			< 250	B* (0.10 < B ≦ 0.20)
COc1cc2ncnc(Oc3cccc(NC(=O)Nc4cccc(C(F)(F)F)c4)c3)c2cc1OC [Ex 181, 1-(3-(6,7-dimethoxyquinazolin-4-yloxy)phenyl)-3-(3-(trifluoromethyl)phenyl)urea]	< 250	< 250			< 250	C* (0.20 < C ≦ 0.40)
COc1cc2ncnc(Sc3cccc(NC(=O)Nc4cc(C(F)(F)F)nn4C)c3)c2cc1OC [Ex 193, 1-[3-(6,7-dimethoxyquinazolin-4-ylthio)phenyl]-3-[1-methyl-3-(trifluoromethyl)-1H-pyrazol-5-yl]urea]	< 250	< 250			< 250	D* (D > 0.40)
COc1cc2ncnc(Sc3cccc(NC(=O)Nc4cc(C(C)(CF)CF)nn4-c4ccccc4)c3)c2cc1OC [Ex 196, 1-[3-(1,3-difluoro-2-methylpropan-2-yl)-1-phenyl-1H-pyrazol-5-yl]-3-[3-(6,7-dimethoxyquinazolin-4-ylthio)phenyl]urea]	> 1000	> 1000			> 1000	D* (D > 0.40)
